How the values were obtained:
Format in all cases: physicochemical
[1] = Stability of Racecadotril in Beta-Hydroxypropyl-Cyclodextrin (Beta-HPCD)
Experimental: (§1) Formulations of racecadotril in beta-hydroxypropyl-cyclodextrin were evaluated (Table 4). • 1. Pipet 1 mL of Racecadotril solution into a 100 mL volumetric flask (V.F.) • 2. Dilute to volume with the same buffer used in the solution preparation. • 3. […] Parameters may be modified to optimize chromatography. • The assay of Racecadotril is determined by using the external standard injected. The degradation products levels are determined by % peak area relative to the Racecadotril peak. [table] [table] Mobil Phase A: Phosphate buffer, pH 2.5 (Buffer prep: dissolve 1 g of potassium dihydrogen phosphate in water, adjust to pH 2.5 with phosphoric acid, dilute to 1000 mL with water) Mobil Phase B: 100% Acetonitrile

[2] = Solubility of racecadotril in water, buffer and Beta-HPCD (statements)
[3] = Stability of Racecadotril in Buffer Solutions
Experimental: as §1, with “For comparative purposes, the stability” for “Formulations”, “racecadotril was analyzed when solubilized” for “racecadotril”, “pH 4.5 Acetate buffer and pH 4.5 Citrate buffer” for “beta-hydroxypropyl-cyclodextrin were evaluated”, “3).” for “4).”

CC(=O)SCC(Cc1ccccc1)C(=O)NCC(=O)OCc1ccccc1 (racemic) [Racecadotril]
stability in Beta-HPCD compared with buffers alone [1]: stability is similar to that in buffers alone | Racecadotril in Beta-HPCD at 40° C. (%) with pH Adjustment to 4.5, Acetate Buffer ([1]; 1 Week): 96.16% | Racecadotril in Beta-HPCD at 40° C. (%) with pH Adjustment to 4.5, Citrate Buffer ([1]; 1 Week): 96.20% | Racecadotril in Beta-HPCD at 40° C. (%) without pH Adjustment, Acetate Buffer ([1]; 1 Week): 94.1% | Racecadotril in Beta-HPCD at 40° C. (%) without pH Adjustment, Citrate Buffer ([1]; 1 Week): 93.6% | Racecadotril in Beta-HPCD at 40° C. (%) with pH Adjustment to 4.5, Acetate Buffer ([1]; 2 Weeks): 92.7% | Racecadotril in Beta-HPCD at 40° C. (%) with pH Adjustment to 4.5, Citrate Buffer ([1]; 2 Weeks): 92.91% | Racecadotril in Beta-HPCD at 40° C. (%) with pH Adjustment to 4.5, Acetate Buffer ([1]; 3 Weeks): 88.95% | Racecadotril in Beta-HPCD at 40° C. (%) with pH Adjustment to 4.5, Citrate Buffer ([1]; 3 Weeks): 89.59% | Racecadotril in Beta-HPCD at 40° C. (%) with pH Adjustment to 4.5, Acetate Buffer ([1]; 4 Weeks): 85.84% | Racecadotril in Beta-HPCD at 40° C. (%) with pH Adjustment to 4.5, Citrate Buffer ([1]; 4 Weeks): 86.80% | Racecadotril in Beta-HPCD at 40° C. (%) with pH Adjustment to 4.5, Acetate Buffer ([1]; 12 Hours): 98.07% | Racecadotril in Beta-HPCD at 40° C. (%) with pH Adjustment to 4.5, Citrate Buffer ([1]; 12 Hours): 98.12% | Racecadotril in Beta-HPCD at 40° C. (%) without pH Adjustment, Acetate Buffer ([1]; 12 Hours): 96.9% | Racecadotril in Beta-HPCD at 40° C. (%) without pH Adjustment, Citrate Buffer ([1]; 12 Hours): 96.9% | Racecadotril in Beta-HPCD at 40° C. (%) with pH Adjustment to 4.5, Acetate Buffer ([1]; Initial): 99.58% | Racecadotril in Beta-HPCD at 40° C. (%) with pH Adjustment to 4.5, Citrate Buffer ([1]; Initial): 99.58% | Racecadotril in Beta-HPCD at 40° C. (%) without pH Adjustment, Acetate Buffer ([1]; Initial): 99.5% | Racecadotril in Beta-HPCD at 40° C. (%) without pH Adjustment, Citrate Buffer ([1]; Initial): 99.3% | solubility in buffer compared with water [2]: more soluble in buffer than in water | solubility utilizing the Beta-HPCD compared with buffers alone [2]: higher solubility | Racecadotril in pH 4.5 Acetate Buffer at 40° C. (% Racecadotril) ([3]; 1 Week): 96.7% | Racecadotril in pH 4.5 Citrate Buffer at 40° C. (% Racecadotril) ([3]; 1 Week): 95.3% | Racecadotril in pH 4.5 Acetate Buffer at 40° C. (% Racecadotril) ([3]; 2 Weeks): 93.3% | Racecadotril in pH 4.5 Citrate Buffer at 40° C. (% Racecadotril) ([3]; 2 Weeks): 91.2% | Racecadotril in pH 4.5 Acetate Buffer at 40° C. (% Racecadotril) ([3]; 3 Weeks): 91.5% | Racecadotril in pH 4.5 Citrate Buffer at 40° C. (% Racecadotril) ([3]; 3 Weeks): 89.0% | Racecadotril in pH 4.5 Acetate Buffer at 40° C. (% Racecadotril) ([3]; 4 Weeks): 88.0% | Racecadotril in pH 4.5 Citrate Buffer at 40° C. (% Racecadotril) ([3]; 4 Weeks): 85.4% | Racecadotril in pH 4.5 Acetate Buffer at 40° C. (% Racecadotril) ([3]; 12 Hours): 99.69% | Racecadotril in pH 4.5 Citrate Buffer at 40° C. (% Racecadotril) ([3]; 12 Hours): 99.63% | stability in buffer compared with water ([3]; 40° C. and 4 weeks): more stable in a buffer than in water | Racecadotril in pH 4.5 Acetate Buffer at 40° C. (% Racecadotril) ([3]; Initial): 99.86% | Racecadotril in pH 4.5 Citrate Buffer at 40° C. (% Racecadotril) ([3]; Initial): 99.74%
